Patent US10750743B2, “Pyridazinone herbicides” (E.I. DU PONT DE NEMOURS AND COMPANY, priority 2015, dated 2020)

Legend:
Format in all cases: in vivo
[1] = test system: barnyardgrass (Echinochloa crus-galli); experiment: Test A postemergence application, visual injury rating; settings: 0 to 100 scale, 0 no effect, 100 complete control
Procedure, shortened: (§1)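 Injury ratings, 0 (no effect) to 100 (complete control), were scored visually versus untreated plants roughly 10 d after treatment under greenhouse conditions. Treatments used surfactant-containing solvent formulations, sprayed onto soil preemergence or onto one- to two-leaf seedlings (2-10 cm) postemergence, grown in a loam-sand mix.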

kochia (Kochia scoparia) [2] = experiment: as above; settings: 0 to 100 scale, 0 no effect, 100 complete control
Procedure, shortened: as §1

[3] = test system: foxtail, giant (giant foxtail, Setaria faberii); experiment: as above; settings: 0 to 100 scale, 0 no effect, 100 complete control
Procedure, shortened: as §1

corn (Zea mays) = experiment: as above; settings: 0 to 100 scale, 0 no effect, 100 complete control
Procedure, shortened: as §1

[4] = test system: pigweed (Amaranthus retroflexus); experiment: as above; settings: 0 to 100 scale, 0 no effect, 100 complete control
Procedure, shortened: as §1

[5] = test system: galium (catchweed bedstraw, Galium aparine); experiment: as above; settings: 0 to 100 scale, 0 no effect, 100 complete control
Procedure, shortened: as §1

[6] = test system: ragweed (common ragweed, Ambrosia elatior); experiment: as above; settings: 0 to 100 scale, 0 no effect, 100 complete control
Procedure, shortened: as §1

[7] = test system: wheat (Triticum aestivum); experiment: as above; settings: 0 to 100 scale, 0 no effect, 100 complete control
Procedure, shortened: as §1

[8] = test system: blackgrass (Alopecurus myosuroides); experiment: as above; settings: 0 to 100 scale, 0 no effect, 100 complete control
Procedure, shortened: as §1

[9] = test system: ryegrass, It. (Italian ryegrass, Lolium multiflorum); experiment: as above; settings: 0 to 100 scale, 0 no effect, 100 complete control
Procedure, shortened: as §1

[10] = test system: barnyardgrass (Echinochloa crus-galli); experiment: Test B flooded paddy test, visual rating; settings: Flood, 250 g ai/ha, applied to paddy water, rated after 13 to 15 d
Procedure, shortened: (§2)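 Ratings use a 0-100 visual scale, where 100 is complete control, and compare treated plants with controls after 13 to 15 d of greenhouse growth. Compound went straight into paddy water kept 3 cm over the soil surface, applied to seedlings at the 2-leaf stage.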

rice (Oryza sativa) = experiment: Test B flooded paddy test, visual rating; settings: Flood, 250 g ai/ha, applied to paddy water, rated after 13 to 15 d
Procedure, shortened: as §2

[11] = test system: sedge, umbrella (small-flower umbrella sedge, Cyperus difformis); experiment: Test B flooded paddy test, visual rating; settings: Flood, 250 g ai/ha, applied to paddy water, rated after 13 to 15 d
Procedure, shortened: as §2

[12] = test system: ducksalad (Heteranthera limosa); experiment: Test B flooded paddy test, visual rating; settings: Flood, 250 g ai/ha, applied to paddy water, rated after 13 to 15 d
Procedure, shortened: as §2

[13] = test system: barnyardgrass (Echinochloa crus-galli); experiment: Test A preemergence, directed soil spray, visual injury rating; settings: 0 is no effect, 100 is complete control
Procedure, shortened: as §1

kochia (Kochia scoparia) [14] = experiment: as above; settings: 0 is no effect, 100 is complete control
Procedure, shortened: as §1

[15] = test system: foxtail, giant (giant foxtail, Setaria faberii); experiment: as above; settings: 0 is no effect, 100 is complete control
Procedure, shortened: as §1

[16] = test system: pigweed (Amaranthus retroflexus); experiment: as above; settings: 0 is no effect, 100 is complete control
Procedure, shortened: as §1

[17] = test system: ragweed (common ragweed, Ambrosia elatior); experiment: as above; settings: 0 is no effect, 100 is complete control
Procedure, shortened: as §1

[18] = test system: ryegrass, It. (Italian ryegrass, Lolium multiflorum); experiment: as above; settings: 0 is no effect, 100 is complete control
Procedure, shortened: as §1

Structure (SMILES)	Barnyardgrass plant response rating ([1]; 31 g ai/ha)	Barnyardgrass plant response rating ([1]; 125 g ai/ha)	Kochia plant response rating (kochia (Kochia scoparia) [2]; 31 g ai/ha)	Kochia plant response rating (kochia (Kochia scoparia) [2]; 125 g ai/ha)	Foxtail, Giant plant response rating ([3]; 31 g ai/ha)	Foxtail, Giant plant response rating ([3]; 125 g ai/ha)	Corn plant response rating (corn (Zea mays); 31 g ai/ha)	Corn plant response rating (corn (Zea mays); 125 g ai/ha)	Pigweed plant response rating ([4]; 31 g ai/ha)	Pigweed plant response rating ([4]; 125 g ai/ha)	Galium plant response rating ([5]; 31 g ai/ha)	Galium plant response rating ([5]; 125 g ai/ha)	Ragweed plant response rating ([6]; 31 g ai/ha)	Ragweed plant response rating ([6]; 125 g ai/ha)	Wheat plant response rating ([7]; 31 g ai/ha)	Wheat plant response rating ([7]; 125 g ai/ha)	Blackgrass plant response rating ([8]; 31 g ai/ha)	Blackgrass plant response rating ([8]; 125 g ai/ha)	Ryegrass, It. plant response rating ([9]; 31 g ai/ha)	Ryegrass, It. plant response rating ([9]; 125 g ai/ha)	further results
Cc1ccc2sc(Cl)cc2c1-c1c(O)c(C)nn(C)c1=O [Compound 46]	10	30	60	90	50	90	0	20	90	90	90	90	90	100	0	20	40	70	90	100	Barnyardgrass plant response rating (0 to 100 scale, 0 is no effect, 100 is complete control) [10]: 0; Rice plant response rating (0 to 100 scale, 0 is no effect, 100 is complete control) (rice (Oryza sativa)): 0; Sedge, Umbrella plant response rating (0 to 100 scale, 0 is no effect, 100 is complete control) [11]: 70; Ducksalad plant response rating (0 to 100 scale, 0 is no effect, 100 is complete control) [12]: 0; Plant response rating (0 to 100 scale), Barnyardgrass ([13]; 31 g ai/ha): 0; Plant response rating (0 to 100 scale), Barnyardgrass ([13]; 125 g ai/ha): 50; Plant response rating (0 to 100 scale), Kochia (kochia (Kochia scoparia) [14]; 31 g ai/ha): 50; Plant response rating (0 to 100 scale), Kochia (kochia (Kochia scoparia) [14]; 125 g ai/ha): 80; Plant response rating (0 to 100 scale), Foxtail, Giant ([15]; 31 g ai/ha): 30; Plant response rating (0 to 100 scale), Foxtail, Giant ([15]; 125 g ai/ha): 80; Plant response rating (0 to 100 scale), Pigweed ([16]; 31 g ai/ha): 100; Plant response rating (0 to 100 scale), Pigweed ([16]; 125 g ai/ha): 100; Plant response rating (0 to 100 scale), Ragweed ([17]; 31 g ai/ha): 80; Plant response rating (0 to 100 scale), Ragweed ([17]; 125 g ai/ha): 80; Plant response rating (0 to 100 scale), Ryegrass, It. ([18]; 31 g ai/ha): 90; Plant response rating (0 to 100 scale), Ryegrass, It. ([18]; 125 g ai/ha): 100
Cc1cc2c(Cl)ccc(-c3c(O)c(C)nn(C)c3=O)c2o1 [Compound 43]	0	10	0	0	0	0	0	0	0	0	70	80	0	20	0	10	0	50	50	80	Barnyardgrass plant response rating (0 to 100 scale, 0 is no effect, 100 is complete control) [10]: 0; Rice plant response rating (0 to 100 scale, 0 is no effect, 100 is complete control) (rice (Oryza sativa)): 0; Sedge, Umbrella plant response rating (0 to 100 scale, 0 is no effect, 100 is complete control) [11]: 35; Ducksalad plant response rating (0 to 100 scale, 0 is no effect, 100 is complete control) [12]: 40; Plant response rating (0 to 100 scale), Barnyardgrass ([13]; 31 g ai/ha): 10; Plant response rating (0 to 100 scale), Barnyardgrass ([13]; 125 g ai/ha): 30; Plant response rating (0 to 100 scale), Kochia (kochia (Kochia scoparia) [14]; 31 g ai/ha): 0; Plant response rating (0 to 100 scale), Kochia (kochia (Kochia scoparia) [14]; 125 g ai/ha): 0; Plant response rating (0 to 100 scale), Foxtail, Giant ([15]; 31 g ai/ha): 10; Plant response rating (0 to 100 scale), Foxtail, Giant ([15]; 125 g ai/ha): 40; Plant response rating (0 to 100 scale), Pigweed ([16]; 31 g ai/ha): 0; Plant response rating (0 to 100 scale), Pigweed ([16]; 125 g ai/ha): 0; Plant response rating (0 to 100 scale), Ragweed ([17]; 31 g ai/ha): 30; Plant response rating (0 to 100 scale), Ragweed ([17]; 125 g ai/ha): 30; Plant response rating (0 to 100 scale), Ryegrass, It. ([18]; 31 g ai/ha): 60; Plant response rating (0 to 100 scale), Ryegrass, It. ([18]; 125 g ai/ha): 80
